Consider 19 compounds from patent US9873709B2 (priority 2013, dated 2018).

The test system of the assay is JAK1-dependent STAT6 phosphorylation downstream of IL-13 stimulation in TF-1 human erythroleukemia cells. Kind of assay: cells. Particulars: TF-1, read-out: IL-13-pSTAT6 IC50.
As usually defined, the IC50 is the concentration at which inhibition is half-maximal. `Cc1cccc(C(C)NC(=O)c2ccc(Nc3nc4c(C5=CCN(C(=O)CCC(F)(F)F)CC5)cccn4n3)cc2)n1` (stereo not shown) [Example 2-401, N-[1-(6-methyl-2-pyridyl)ethyl]-4-[[8-[1-(4,4,4-trifluorobutanoyl)-3,6-dihydro-2H-pyridin-4-yl]-[1,2,4]triazolo[1,5-a]pyridin-2-yl]amino]benzamide]: the IC50 came out at 0.006 µM. Under `CN(Cc1cccnc1)C(=O)c1ccc(Nc2nc3c(C4=CCN(C(=O)CCC(F)(F)F)CC4)cccn3n2)cc1` [Example 2-402, N-methyl-N-(3-pyridylmethyl)-4-[[8-[1-(4,4,4-trifluorobutanoyl)-3,6-dihydro-2H-pyridin-4-yl]-[1,2,4]triazolo[1,5-a]pyridin-2-yl]amino]benzamide] stands 0.0056 µM; under `O=C(CCC(F)(F)F)N1CC=C(c2cccn3nc(Nc4ccc(C(=O)N5CCCC(N6CCCCCC6)C5)cc4)nc23)CC1` (stereo not shown) [Example 2-403, 1-[4-[2-[4-[3-(azepan-1-yl)piperidine-1-carbonyl]anilino]-[1,2,4]triazolo[1,5-a]pyridin-8-yl]-3,6-dihydro-2H-pyridin-1-yl]-4,4,4-trifluoro-butan-1-one], 0.0074 µM; under `O=C(CCC(F)(F)F)N1CC=C(c2cccn3nc(Nc4ccc(C(=O)N5CCC(Cc6ccccn6)CC5)cc4)nc23)CC1` [Example 2-404, 4,4,4-trifluoro-1-[4-[2-[4-[4-(2-pyridylmethyl)piperidine-1-carbonyl]anilino]-[1,2,4]triazolo[1,5-a]pyridin-8-yl]-3,6-dihydro-2H-pyridin-1-yl]butan-1-one], 0.0132 µM.

In the case of `O=C(CCC(F)(F)F)N1CC=C(c2cccn3nc(Nc4ccc(C(=O)N5CCC(Cc6cccnc6)C5)cc4)nc23)CC1` (stereo not shown) [Example 2-405, 4,4,4-trifluoro-1-[4-[2-[4-[3-(3-pyridylmethyl)pyrrolidine-1-carbonyl]anilino]-[1,2,4]triazolo[1,5-a]pyridin-8-yl]-3,6-dihydro-2H-pyridin-1-yl]butan-one], the IC50 is 0.0075 µM. Turning to `CN(Cc1ccc(N(C)C)cc1)C(=O)c1ccc(Nc2nc3c(C4=CCN(C(=O)CCC(F)(F)F)CC4)cccn3n2)cc1` [Example 2-406, N-[[4-(dimethylamino)phenyl]-methyl]-N-methyl-4-[[8-[1-(4,4,4-trifluorobutanoyl)-3,6-dihydro-2H-pyridin-4-yl]-[1,2,4]triazolo[1,5-a]pyridin-2-yl]amino]benzamide], the IC50 amounted to 0.0404 µM. Under `CN(Cc1ccncc1)C(=O)c1ccc(Nc2nc3c(C4=CCN(C(=O)CCC(F)(F)F)CC4)cccn3n2)cc1` [Example 2-407, N-methyl-N-(4-pyridylmethyl)-4-[[8-[1-(4,4,4-trifluorobutanoyl)-3,6-dihydro-2H-pyridin-4-yl]-[1,2,4]triazolo[1,5-a]pyridin-2-yl]amino]benzamide] stands 0.0047 µM; under `CN1CCC(N(C)C(=O)c2ccc(Nc3nc4c(C5=CCN(C(=O)c6ccccc6)CC5)cccn4n3)cc2)CC1` [Example 2-408, 4-[[8-(1-benzoyl-3,6-dihydro-2H-pyridin-4-yl)-[1,2,4]triazolo[1,5-a]pyridin-2-yl]amino]-N-methyl-N-(1-methyl-4-piperidyl)benzamide], 0.188 µM; under `CN1CCC(N(C)C(=O)c2ccc(Nc3nc4c(C5=CCN(C(=O)C6CC6)CC5)cccn4n3)cc2)CC1` [Example 2-409, 4-[[8-[1-(cyclopropanecarbonyl)-3,6-dihydro-2H-pyridin-4-yl]-[1,2,4]triazolo[1,5-a]pyridin-2-yl]amino]-N-methyl-N-(1-methyl-4-piperidyl)benzamide], 0.124 µM. Under `CC(C)C(=O)N1CC=C(c2cccn3nc(Nc4ccc(C(=O)N(C)C5CCN(C)CC5)cc4)nc23)CC1` [Example 2-410, N-methyl-N-(1-methyl-4-piperidyl)-4-[[8-[1-(2-methylpropanoyl)-3,6-dihydro-2H-pyridin-4-yl]-[1,2,4]triazolo[1,5-a]pyridin-2-yl]amino]benzamide] stands 0.13 µM; under `COCCC(=O)N1CC=C(c2cccn3nc(Nc4ccc(C(=O)N(C)C5CCN(C)CC5)cc4)nc23)CC1` [Example 2-411, 4-[[8-[1-(3-methoxypropanoyl)-3,6-dihydro-2H-pyridin-4-yl]-[1,2,4]triazolo[1,5-a]pyridin-2-yl]amino]-N-methyl-N-(1-methyl-4-piperidyl)benzamide], 0.348 µM; under `CC(C)CCC(=O)N1CC=C(c2cccn3nc(Nc4ccc(C(=O)N(C)C5CCN(C)CC5)cc4)nc23)CC1` [Example 2-412, N-methyl-4-[[8-[1-(4-methylpentanoyl)-3,6-dihydro-2H-pyridin-4-yl]-[1,2,4]triazolo[1,5-a]pyridin-2-yl]amino]-N-(1-methyl-4-piperidyl)benzamide], 0.0265 µM. Under `CN1CCC(N(C)C(=O)c2ccc(Nc3nc4c(C5=CCN(C(=O)N6CCOCC6)CC5)cccn4n3)cc2)CC1` [Example 2-413, N-methyl-N-(1-methyl-4-piperidyl)-4-[[8-[1-(morpholine-4-carbonyl)-3,6-dihydro-2H-pyridin-4-yl]-[1,2,4]triazolo[1,5-a]pyridin-2-yl]amino]benzamide] stands 1.26 µM. Consider `CCOC(=O)N1CC=C(c2cccn3nc(Nc4ccc(C(=O)NCC5CCCCN5C)cc4)nc23)CC1` (stereo not shown) [Example 2-415, ethyl 4-[2-[4-[(1-methyl-2-piperidyl)methylcarbamoyl]anilino]-[1,2,4]triazolo[1,5-a]pyridin-8-yl]-3,6-dihydro-2H-pyridine-1-carboxylate], for which the IC50 turned out to be 0.013 µM. For `CCOC(=O)N1CC=C(c2cccn3nc(Nc4ccc(C(=O)NCCC5CCCNC5)cc4)nc23)CC1` (stereo not shown) [Example 2-416, ethyl 4-[2-[4-[2-(3-piperidyl)ethylcarbamoyl]anilino]-[1,2,4]triazolo[1,5-a]pyridin-8-yl]-3,6-dihydro-2H-pyridine-1-carboxylate] the value was 0.598 µM; for `CCOC(=O)N1CC=C(c2cccn3nc(Nc4ccc(C(=O)N5CC(C(=O)N6CCN(C)CC6)C5)cc4)nc23)CC1` [Example 2-421, ethyl 4-[2-[4-[3-(4-methylpiperazine-1-carbonyl)azetidine-1-carbonyl]anilino]-[1,2,4]triazolo[1,5-a]pyridin-8-yl]-3,6-dihydro-2H-pyridine-1-carboxylate], 0.0241 µM.

As to `CCOC(=O)N1CC=C(c2cccn3nc(Nc4ccc(C(=O)NCCc5cccnc5)cc4)nc23)CC1` [Example 2-422, ethyl 4-[2-[4-[2-(3-pyridyl)ethylcarbamoyl]anilino]-[1,2,4]triazolo[1,5-a]pyridin-8-yl]-3,6-dihydro-2H-pyridine-1-carboxylate], the concentration for half-maximal inhibition (IC50) came out at 0.014 µM. Under `CCOC(=O)N1CC=C(c2cccn3nc(Nc4ccc(C(=O)NCCc5ccccn5)cc4)nc23)CC1` [Example 2-423, ethyl 4-[2-[4-[2-(2-pyridyl)ethylcarbamoyl]anilino]-[1,2,4]triazolo[1,5-a]pyridin-8-yl]-3,6-dihydro-2H-pyridine-1-carboxylate] stands 0.0173 µM; under `CCOC(=O)N1CC=C(c2cccn3nc(Nc4ccc(C(=O)NCC5CCNCC5)cc4)nc23)CC1` [Example 2-425, ethyl 4-[2-[4-(4-piperidylmethylcarbamoyl)anilino]-[1,2,4]triazolo[1,5-a]pyridin-8-yl]-3,6-dihydro-2H-pyridine-1-carboxylate], 0.226 µM.
